Where a SMILES comes first, the peptide text is derived from it.
Target: T1, angiotensin I converting enzyme (ACE) (Oryctolagus cuniculus, UniProt P12822)
T1 construct: ACE (from rabbit lung; 2.0 units/mg of protein); purchased Sigma Chemical Company (St. Louis, MO, USA); host or cells: rabbit lung (tissue-derived)
T1 sequence (P12822 34-1310): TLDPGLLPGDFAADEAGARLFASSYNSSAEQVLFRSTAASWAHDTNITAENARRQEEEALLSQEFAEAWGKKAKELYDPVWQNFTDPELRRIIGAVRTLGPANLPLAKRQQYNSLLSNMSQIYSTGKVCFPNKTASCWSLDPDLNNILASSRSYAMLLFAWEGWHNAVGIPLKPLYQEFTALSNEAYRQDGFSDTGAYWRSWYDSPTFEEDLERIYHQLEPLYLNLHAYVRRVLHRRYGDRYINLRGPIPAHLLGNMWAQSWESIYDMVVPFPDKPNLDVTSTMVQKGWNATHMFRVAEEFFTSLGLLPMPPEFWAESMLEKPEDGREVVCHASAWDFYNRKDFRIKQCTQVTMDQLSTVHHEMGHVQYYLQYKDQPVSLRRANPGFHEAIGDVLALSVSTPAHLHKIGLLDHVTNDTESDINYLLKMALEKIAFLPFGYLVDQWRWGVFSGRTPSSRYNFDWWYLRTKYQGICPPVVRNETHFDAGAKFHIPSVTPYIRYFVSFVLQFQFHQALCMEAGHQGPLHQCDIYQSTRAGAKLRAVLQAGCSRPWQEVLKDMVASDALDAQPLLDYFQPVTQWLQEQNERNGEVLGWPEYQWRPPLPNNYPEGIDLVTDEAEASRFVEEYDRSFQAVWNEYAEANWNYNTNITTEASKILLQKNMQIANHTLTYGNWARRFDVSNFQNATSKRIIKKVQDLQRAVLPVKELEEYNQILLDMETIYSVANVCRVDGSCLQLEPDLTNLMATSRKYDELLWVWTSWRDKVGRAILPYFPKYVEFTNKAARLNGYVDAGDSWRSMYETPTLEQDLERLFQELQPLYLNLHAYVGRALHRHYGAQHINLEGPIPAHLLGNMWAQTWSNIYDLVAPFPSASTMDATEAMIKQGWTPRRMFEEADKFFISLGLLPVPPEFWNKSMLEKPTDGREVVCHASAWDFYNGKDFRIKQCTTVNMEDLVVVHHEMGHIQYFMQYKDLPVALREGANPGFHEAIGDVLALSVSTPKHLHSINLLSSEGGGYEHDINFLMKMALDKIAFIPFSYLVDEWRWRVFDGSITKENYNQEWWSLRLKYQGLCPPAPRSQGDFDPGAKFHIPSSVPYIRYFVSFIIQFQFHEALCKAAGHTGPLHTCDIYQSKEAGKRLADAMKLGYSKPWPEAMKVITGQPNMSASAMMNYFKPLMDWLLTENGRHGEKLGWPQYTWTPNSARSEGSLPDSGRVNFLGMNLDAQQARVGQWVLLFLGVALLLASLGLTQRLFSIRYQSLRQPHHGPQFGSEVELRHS
Assay: ACE inhibitory activity (IC50 and inhibitory ratio IP)
Format: biochemical
Conditions: ACE from rabbit lung
Protocol: Lizard fish was purchased from a local market in Nanning, China, during the fishing season. It was identified by engineer Cuican at Beihai Institute of Oceanology. Its muscle was rapidly separated, dried with hot air (90 °C) over 8 h, powdered, and then stored in the cryogenic refrigerator. Agarose (BR) and NiSO4·6H2O (AR) were purchased from Sinopharm Chemical Reagent Co., (Beijing, China). Iminodiacetic acid (IDA) was purchased from Sinopharm Chemical Reagent Co., Ltd. (Beijing, China). ACE (from rabbit lung; 2.0 units/mg of protein) and hippuryl-L-histidyl-L-leucine (HHL) were purchased from the Sigma Chemical Company (St. Louis, MO, USA). All other reagents used were of analytical grade.
The affinity column was equilibrated at a flow rate of 1.5 mL·min^−1 with PBS. […] Fractions with affinity for Ni^2+ ion were eluted and monitored at 280 nm. […] The ACE-inhibitory activity of these fractions were determined, and the inhibitory ratios (IP) were calculated according to Wu et al.. The concentrations of protein were measured by the UV method using a wavelength of 280 nm, and the protein recovery rate was calculated as follows: (1) R=m/M×100% • R—Recovery rate of protein, %; • m—Protein content of the sample eluted from IMAC (IMAC fractions), mg; • M—Protein content of the sample before treatment of IMAC chromatographic procedures, mg.

## N=C(N)NCCC[C@H](NC(=O)[C@H](Cc1ccc(O)cc1)NC(=O)[C@@H](N)CCCNC(=N)N)C(=O)N1CCC[C@H]1C(=O)O [RYRP, Arg-Tyr-Arg-Pro] (H-RYRP-OH)
ACE inhibition, HHL listed as material, inhibitory ratios calculated according to Wu et al. [22]
  IC50: 52 µM
RP-HPLC fractions of F2 (Zorbax SB C18), inhibitory ratio according to Wu et al. [22], test concentration not given
  IP% (inhibitory activity of fractions separated by RP-HPLC): 73.05%
